Key:
[1] = system: large crabgrass (Digitaria sanguinalis); test: Glasshouse trial, control of large crabgrass, post-emergence application; format: in vivo
Method: A glasshouse trial was carried out. Large crabgrass seeds were sown into standard glasshouse potting mix (1:1 v/v Promix:Vero sand soil) contained in 10 cm square plastic pots. Treatments were replicated three times. Mesotrione (in the form Callisto® 480SE) was applied post-emergence to large crabgrass (Digitaria sanguinalis) at either 12 g ai/ha or 24 g ai/ha with or without s-metolachlor (in the form Dual Magnum®). When used, s-metolachlor was applied at a rate of 500 g ai/ha or 1000 g ai/ha. The adjuvant system was X-77 at 0.1% v/v in deionised water. 200 liters of herbicide/adjuvant system was used per hectare. General weed control was evaluated at 7 and 14 days after treatment (DAT). It is noted that all herbicides were applied at reduced field rates because herbicide effects are magnified in a glasshouse environment. Rates were chosen to give a 50 to 70% level of control with herbicides applied alone as this allows for detection of any synergistic effect when tank mixtures are used. […] The results were evaluated using the Colby formula. The expected result for (A+B) is (A+B)−(A×B/100) where A and B are the ‘observed’ results for A and B on their own.

[2] = system: white clover (Trifolium repens); test: Glasshouse trial, control of white clover, post-emergence application; format: in vivo; settings: 16 DAT
Method: A glasshouse trial was carried out. White clover seeds were sown into standard glasshouse potting mix (1:1 v/v Promix:Vero sand soil) contained in 10 cm square plastic pots. Treatments were replicated three times. Mesotrione (in the form Callisto®480SE) was applied post-emergence to white clover (Trifolium repens) at either 50 g ai/ha or 100 g ai/ha with or without s-metolachlor (in the form Dual Magnum®). […] The adjuvant system was X-77 at 0.1% v/v in deionised water. 200 liters of herbicide/adjuvant system was used per hectare. General weed control was evaluated at 10 and 16 days after treatment (DAT). It is noted that all herbicides were applied at reduced field rates because herbicide effects are magnified in a glasshouse environment. Rates were chosen to give a 50 to 70% level of control with herbicides applied alone as this allows for detection of any synergistic effect when tank mixtures are used. […] The results were evaluated using the Colby formula. The expected result for (A+B) is (A+B)−(A×B/100) where A and B are the ‘observed’ results for A and B on their own.

large crabgrass = test: Control of large crabgrass, pre-emergent application of the herbicides; format: in vivo, Digitaria sanguinalis; settings: s-metolachlor 5 g ai/ha in the absence of mesotrione

Row | Molecule | control of large crabgrass, herbicide alone ([1]; mesotrione alone, post-emergence, 7 DAT) | control of white clover, herbicide alone ([2]; mesotrione alone at the lower rate (50 g ai/ha)) [%] | control of large crabgrass, herbicide alone ([1]; first experiment, s-metolachlor on its own (500 or 1000 g ai/ha), post-emergence, 14 DAT) | control of large crabgrass, herbicide alone ([1]; repeat experiment, s-metolachlor 500 g ai/ha in the absence of mesotrione, 14DAT) [%] | control of large crabgrass, herbicide alone ([1]; repeat experiment, s-metolachlor 1000 g ai/ha in the absence of mesotrione, 14DAT) [%] | control of large crabgrass, herbicide alone (large crabgrass) [%] | control of white clover, herbicide alone ([2]; s-metolachlor on its own at 500 g ai/ha) [%]
1 | CS(=O)(=O)c1ccc(C(=O)C2C(=O)CCCC2=O)c([N+](=O)[O-])c1 [mesotrione, 2-(2′-nitro-4′-methylsulphonylbenzoyl)-1,3-cyclohexanedione] | relatively high | 32 |  |  |  |  | 
2 | s-metolachlor |  |  | no control | 7 | 7 | 95 | 3

Source: patent US8298993B2, “Herbicidal composition and method of use thereof” (Syngenta Crop Protection LLC, priority 2006, dated 2012)
